According to ChEMBL document CHEMBL4351025, “Indole-nitroimidazole conjugates as efficient manipulators to decrease the genes expression of methicillin-resistant Staphylococcus aureus” (Eur J Med Chem, 2019):
≈ marks a conversion by molar mass, not a printed value. Calls of active or inactive are those of the source. No cut-off for these calls is given here.

Key:
Staphylococcus aureus [1] = test: Antibacterial activity against methicillin-resistant Staphylococcus aureus N315 incubated for 24 hrs by two fold serial dilution method; type: functional; settings: N315, 24 h
Albumin [2] = molecular target: T1, Albumin (Homo sapiens, UniProt P02768); test: Binding affinity to HSA assessed as binding constant at 298K in presence of Mg2+ ion by spectrofluorimetric based Scatchard method; type: ADME; settings: isolated protein
Albumin [3] = molecular target: T1, Albumin; test: Binding affinity to HSA assessed as quenching constant at 300 K by spectrofluorimetric analysis; type: ADME; settings: isolated protein
Pseudomonas aeruginosa = test: Antibacterial activity against Pseudomonas aeruginosa incubated for 24 hrs by two fold serial dilution method; type: functional
Acinetobacter baumannii = test: Antibacterial activity against Acinetobacter baumannii incubated for 24 hrs by two fold serial dilution method; type: functional
Staphylococcus aureus [4] = test: Antibacterial activity against methicillin-resistant Staphylococcus aureus N315 assessed as reduction in MecA gene expression incubated for 3 hrs by qRT-PCR analysis; type: functional, organism-based
Albumin [5] = molecular target: T1, Albumin; test: Binding affinity to HSA assessed as binding constant at 313 K by spectrofluorimetric based Scatchard method; type: ADME; settings: isolated protein
Albumin [6] = molecular target: T1, Albumin; test: Ratio of binding affinity for HSA assessed as binding constant at 298K in presence of Ca2+ ion to binding affinity to HSA at 298K by spectrofluorimetric based Scatchard method; type: ADME; settings: isolated protein
Albumin [7] = molecular target: T1, Albumin; test: Binding affinity to HSA assessed as Stem-Volmer quenching constant at 290 K by spectrofluorimetric analysis; type: ADME; settings: isolated protein
DNA [8] = test: Binding affinity to methicillin-resistant Staphylococcus aureus N315 DNA assessed as hyperchromic effect by neutral red dye based UV-visible spectrophotometric method; type: nucleic-acid assay; settings: Staphylococcus aureus subsp. aureus N315
Albumin [9] = molecular target: T1, Albumin; test: Binding affinity to HSA assessed as effective quenching constant at 313 K by spectrofluorimetric based Stern-Volmer method; type: ADME; settings: isolated protein
[10] = Cytotoxicity activity against human BEAS2B cells assessed as cell viability at 64 ug/ml incubated for 24 hrs by MTT assay relative to control; type: cell-based; settings: BEAS-2B cells, read-out: Activity
Albumin [11] = molecular target: T1, Albumin; test: Ratio of binding affinity for HSA assessed as binding constant at 298K in presence of Mg2+ ion to binding affinity to HSA at 298K by spectrofluorimetric based Scatchard method; type: ADME; settings: isolated protein
[12] = Cytotoxicity activity against human A549 cells assessed as cell viability at 2 to 64 ug/ml incubated for 24 hrs by MTT assay relative to control; type: cell-based; settings: read-out: Activity
Staphylococcus aureus [13] = test: Antibacterial activity against Staphylococcus aureus ATCC 29213 incubated for 24 hrs by two fold serial dilution method; type: functional; settings: ATCC 29213, 24 h
Escherichia coli = test: Antibacterial activity against Escherichia coli incubated for 24 hrs by two fold serial dilution method; type: functional
Albumin [14] = molecular target: T1, Albumin; test: Binding affinity to HSA assessed as Stem-Volmer quenching constant at 313 K by spectrofluorimetric analysis; type: ADME; settings: isolated protein
Albumin [15] = molecular target: T1, Albumin; test: Binding affinity to HSA assessed as binding constant at 300 K by spectrofluorimetric based Scatchard method; type: ADME; settings: isolated protein
DNA [16] = test: Binding affinity to methicillin-resistant Staphylococcus aureus N315 DNA by neutral red dye based UV-visible spectrophotometric method; type: nucleic-acid assay; settings: Staphylococcus aureus subsp. aureus N315
DNA [17] = test: Binding affinity to methicillin-resistant Staphylococcus aureus DNA assessed as reduction in neutral red binding to DNA by UV-visible spectrophotometric method; type: nucleic-acid assay
Staphylococcus aureus [18] = test: Antibacterial activity against methicillin-resistant Staphylococcus aureus N315 assessed as reduction in GyrB gene expression incubated for 3 hrs by qRT-PCR analysis; type: functional, organism-based
Staphylococcus aureus [19] = test: Antibacterial activity against methicillin-resistant Staphylococcus aureus N315 assessed as reduction in FemB gene expression incubated for 3 hrs by qRT-PCR analysis; type: functional, organism-based
Albumin [20] = molecular target: T1, Albumin; test: Binding affinity to HSA assessed as quenching constant at 313 K by spectrofluorimetric analysis; type: ADME; settings: isolated protein
Staphylococcus aureus [21] = test: Induction of membrane permeabilization in methicillin-resistant Staphylococcus aureus N315 assessed as increase in fluorescence intensity at 12 times MIC measured within 70 mins by propidium iodide staining based fluorescence assay; type: functional, organism-based
Staphylococcus aureus [22] = test: Antibacterial activity against methicillin-resistant Staphylococcus aureus N315 at 0.5 times MIC measured over 6 passages; type: functional, organism-based
Klebsiella pneumoniae = test: Antibacterial activity against Klebsiella pneumoniae incubated for 24 hrs by two fold serial dilution method; type: functional
Enterococcus faecalis [23] = test: Antibacterial activity against Enterococcus faecalis incubated for 24 hrs by two fold serial dilution method; type: functional
Albumin [24] = molecular target: T1, Albumin; test: Binding affinity to HSA assessed as binding constant at 290 K by spectrofluorimetric based Scatchard method; type: ADME; settings: isolated protein
Albumin [25] = molecular target: T1, Albumin; test: Binding affinity to HSA assessed as binding constant at 298K in presence of Ca2+ ion by spectrofluorimetric based Scatchard method; type: ADME; settings: isolated protein
Albumin [26] = molecular target: T1, Albumin; test: Binding affinity to HSA assessed as binding constant at 298K by spectrofluorimetric based Scatchard method; type: ADME; settings: isolated protein
Albumin [27] = molecular target: T1, Albumin; test: Binding affinity to HSA assessed as effective quenching constant at 300 K by spectrofluorimetric based Stern-Volmer method; type: ADME; settings: isolated protein
Albumin [28] = molecular target: T1, Albumin; test: Binding affinity to HSA assessed as Stem-Volmer quenching constant at 300 K by spectrofluorimetric analysis; type: ADME; settings: isolated protein
Albumin [29] = molecular target: T1, Albumin; test: Binding affinity to HSA assessed as quenching constant at 290 K by spectrofluorimetric analysis; type: ADME; settings: isolated protein
Albumin [30] = molecular target: T1, Albumin; test: Binding affinity to HSA assessed as effective quenching constant at 290 K by spectrofluorimetric based Stern-Volmer method; type: ADME; settings: isolated protein
Enterococcus faecalis [31] = test: Potency index, ratio of MIC for norfloxacin to test compound MIC for antibacterial activity against Enterococcus faecalis; type: functional

T1 sequence (P02768 whole entry): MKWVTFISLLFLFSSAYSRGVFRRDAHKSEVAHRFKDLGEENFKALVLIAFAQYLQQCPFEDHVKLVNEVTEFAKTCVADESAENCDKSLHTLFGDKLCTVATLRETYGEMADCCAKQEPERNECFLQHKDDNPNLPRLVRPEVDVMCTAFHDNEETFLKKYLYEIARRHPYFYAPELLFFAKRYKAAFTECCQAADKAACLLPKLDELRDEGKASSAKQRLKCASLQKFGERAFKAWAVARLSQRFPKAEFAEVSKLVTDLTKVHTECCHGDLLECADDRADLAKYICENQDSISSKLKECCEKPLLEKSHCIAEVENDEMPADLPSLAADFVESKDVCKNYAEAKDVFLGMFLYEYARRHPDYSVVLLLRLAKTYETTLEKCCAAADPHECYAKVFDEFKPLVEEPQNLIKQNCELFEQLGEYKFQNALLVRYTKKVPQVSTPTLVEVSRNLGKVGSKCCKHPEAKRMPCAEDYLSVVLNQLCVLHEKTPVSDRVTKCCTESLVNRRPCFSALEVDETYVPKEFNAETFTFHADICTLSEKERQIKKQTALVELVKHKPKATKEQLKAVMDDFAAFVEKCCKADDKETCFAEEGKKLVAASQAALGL

CC(=O)/C(=C/c1cn(CC(=O)N2CCCCC2)c2ccccc12)n1cc([N+](=O)[O-])nc1C
MIC (Staphylococcus aureus [1]): 1 µg/mL (≈ 2.3 µM) | Kb (Albumin [2]): 4.766 ×10⁴ L/mol | Kq (Albumin [3]): 1.19 ×10¹³ L/mol/s | MIC (Pseudomonas aeruginosa): 128 µg/mL (≈ 294 µM) | MIC (Acinetobacter baumannii): 128 µg/mL (≈ 294 µM) | Activity (Staphylococcus aureus [4]): Active | Kb (Albumin [5]): 4.95 ×10⁴ L/mol | Ratio (Albumin [6]): 124% | KSV (Albumin [7]): 8.14 ×10⁴ L/mol | Activity (DNA [8]): Active | Kq (Albumin [9]): 56900 M⁻¹ | viability at 24 h, 64 ug/ml [10]: 74% | Ratio (Albumin [11]): 103% | viability at 24 h [12]: > 75% | MIC (Staphylococcus aureus [13]): 128 µg/mL (≈ 294 µM) | MIC (Escherichia coli): 1 µg/mL (≈ 2.3 µM) | KSV (Albumin [14]): 6.35 ×10⁴ L/mol | Kb (Albumin [15]): 5.73 ×10⁴ L/mol | Activity (DNA [16]): Dose-dependent effect | K (DNA [16]): 3.45 ×10⁵ L/mol | Activity (DNA [17]): Active | Activity (Staphylococcus aureus [18]): Active | Activity (Staphylococcus aureus [19]): Active | Kq (Albumin [20]): 0.99 ×10¹³ L/mol/s | Activity (Staphylococcus aureus [21]): Active | Activity (Staphylococcus aureus [22]): Active | MIC (Klebsiella pneumoniae): 8 µg/mL (≈ 18.4 µM) | MIC (Enterococcus faecalis [23]): 32 µg/mL (≈ 73.5 µM) | Kb (Albumin [24]): 5.88 ×10⁴ L/mol | Kb (Albumin [25]): 5.729 ×10⁴ L/mol | Kb (Albumin [26]): 4.624 ×10⁴ L/mol | Kq (Albumin [27]): 79800 M⁻¹ | KSV (Albumin [28]): 7.63 ×10⁴ L/mol | Kq (Albumin [29]): 1.27 ×10¹³ L/mol/s | Kq (Albumin [30]): 132000 M⁻¹

CC(=O)/C(=C/c1cn(CC(=O)N(C2CCCCC2)C2CCCCC2)c2ccccc12)n1cc([N+](=O)[O-])nc1C
MIC (Staphylococcus aureus [1]): 2 µg/mL (≈ 3.76 µM) | MIC (Pseudomonas aeruginosa): 512 µg/mL (≈ 963 µM) | MIC (Acinetobacter baumannii): 512 µg/mL (≈ 963 µM) | MIC (Staphylococcus aureus [13]): 512 µg/mL (≈ 963 µM) | MIC (Escherichia coli): 32 µg/mL (≈ 60.2 µM) | MIC (Klebsiella pneumoniae): 8 µg/mL (≈ 15 µM) | MIC (Enterococcus faecalis [23]): 128 µg/mL (≈ 241 µM)

CC(=O)/C(=C/c1cn(CC(=O)N2CCN(Cc3ccc(F)cc3)CC2)c2cc(C)ccc12)n1cc([N+](=O)[O-])nc1C
MIC (Staphylococcus aureus [1]): 2 µg/mL (≈ 3.58 µM) | MIC (Pseudomonas aeruginosa): 128 µg/mL (≈ 229 µM) | MIC (Acinetobacter baumannii): 512 µg/mL (≈ 917 µM) | MIC (Staphylococcus aureus [13]): 512 µg/mL (≈ 917 µM) | MIC (Escherichia coli): 512 µg/mL (≈ 917 µM) | MIC (Klebsiella pneumoniae): 512 µg/mL (≈ 917 µM) | MIC (Enterococcus faecalis [23]): 64 µg/mL (≈ 115 µM)

COc1cccc2c1C(=O)c1c(O)c3c(c(O)c1C2=O)C[C@@](O)(C(=O)CO)C[C@@H]3O[C@H]1C[C@H](N)[C@H](O)[C@H](C)O1 [DOXORUBICIN]
viability at 24 h [12]: < 75%

CC(=O)/C(=C/c1cn(CC(=O)N2CCCC2)c2ccccc12)n1cc([N+](=O)[O-])nc1C
MIC (Staphylococcus aureus [1]): 64 µg/mL (≈ 152 µM) | MIC (Pseudomonas aeruginosa): 2 µg/mL (≈ 4.75 µM) | MIC (Acinetobacter baumannii): 1 µg/mL (≈ 2.37 µM) | MIC (Staphylococcus aureus [13]): 64 µg/mL (≈ 152 µM) | MIC (Escherichia coli): 8 µg/mL (≈ 19 µM) | MIC (Klebsiella pneumoniae): 16 µg/mL (≈ 38 µM) | MIC (Enterococcus faecalis [23]): 64 µg/mL (≈ 152 µM)

CC(=O)/C(=C/c1cn(CC(=O)N2CCCCC2)c2cc(Cl)ccc12)n1cc([N+](=O)[O-])nc1C
MIC (Staphylococcus aureus [1]): 64 µg/mL (≈ 136 µM) | MIC (Pseudomonas aeruginosa): 256 µg/mL (≈ 545 µM) | MIC (Acinetobacter baumannii): 512 µg/mL (≈ 1090 µM) | MIC (Staphylococcus aureus [13]): 512 µg/mL (≈ 1090 µM) | MIC (Escherichia coli): 64 µg/mL (≈ 136 µM) | MIC (Klebsiella pneumoniae): 64 µg/mL (≈ 136 µM) | MIC (Enterococcus faecalis [23]): 4 µg/mL (≈ 8.51 µM)

C=CCn1cc(/C=C(/C(C)=O)n2cc([N+](=O)[O-])nc2C)c2ccccc21
MIC (Staphylococcus aureus [1]): 32 µg/mL (≈ 91.3 µM) | MIC (Pseudomonas aeruginosa): 16 µg/mL (≈ 45.7 µM) | MIC (Acinetobacter baumannii): 16 µg/mL (≈ 45.7 µM) | MIC (Staphylococcus aureus [13]): 4 µg/mL (≈ 11.4 µM) | MIC (Escherichia coli): 32 µg/mL (≈ 91.3 µM) | MIC (Klebsiella pneumoniae): 32 µg/mL (≈ 91.3 µM) | MIC (Enterococcus faecalis [23]): 64 µg/mL (≈ 183 µM)

CC(=O)Cn1cc(/C=C(/C(C)=O)n2cc([N+](=O)[O-])nc2C)c2ccccc21
MIC (Staphylococcus aureus [1]): 0.5 µg/mL (≈ 1.36 µM) | MIC (Pseudomonas aeruginosa): 512 µg/mL (≈ 1400 µM) | MIC (Acinetobacter baumannii): 128 µg/mL (≈ 349 µM) | MIC (Staphylococcus aureus [13]): 256 µg/mL (≈ 699 µM) | MIC (Escherichia coli): 8 µg/mL (≈ 21.8 µM) | MIC (Klebsiella pneumoniae): 2 µg/mL (≈ 5.46 µM) | MIC (Enterococcus faecalis [23]): 16 µg/mL (≈ 43.7 µM)

NC1CCN(c2c(F)cc3c(=O)c(C(=O)O)cn(C4CC4)c3c2Cl)C1 (stereo not drawn) [CLINAFLOXACIN]
MIC (Staphylococcus aureus [1]): 16 µg/mL (≈ 43.7 µM) | MIC (Pseudomonas aeruginosa): 32 µg/mL (≈ 87.5 µM) | MIC (Acinetobacter baumannii): 16 µg/mL (≈ 43.7 µM) | MIC (Staphylococcus aureus [13]): 0.5 µg/mL (≈ 1.37 µM) | MIC (Escherichia coli): 64 µg/mL (≈ 175 µM) | MIC (Klebsiella pneumoniae): 32 µg/mL (≈ 87.5 µM) | MIC (Enterococcus faecalis [23]): 2 µg/mL (≈ 5.47 µM)

CC(=O)/C(=C/c1cn(CC(=O)N2CCN(Cc3ccc(F)cc3)CC2)c2ccccc12)n1cc([N+](=O)[O-])nc1C
MIC (Staphylococcus aureus [1]): 32 µg/mL (≈ 58.8 µM) | MIC (Pseudomonas aeruginosa): 32 µg/mL (≈ 58.8 µM) | MIC (Acinetobacter baumannii): 32 µg/mL (≈ 58.8 µM) | MIC (Staphylococcus aureus [13]): 8 µg/mL (≈ 14.7 µM) | MIC (Escherichia coli): 16 µg/mL (≈ 29.4 µM) | Ratio (Enterococcus faecalis [31]): 2 | MIC (Klebsiella pneumoniae): 16 µg/mL (≈ 29.4 µM) | MIC (Enterococcus faecalis [23]): 2 µg/mL (≈ 3.67 µM)
